{"source": "ChEMBL document CHEMBL4311992", "about": "“Discovery of 3-(((9H-purin-6-yl)amino)methyl)-4,6-dimethylpyridin-2(1H)-one derivatives as novel tubulin polymerization inhibitors for treatment of cancer” (Eur J Med Chem, 2019)", "key": {"[1]": {"molecular_target": "Serine/threonine-protein kinase pim-3 (Homo sapiens) (UniProt Q86V86)", "assay": "Inhibition of recombinant human Pim3 (2 to end residues) assessed as residual activity at 10 uM using RSRHSSYPAGT as substrate measured after 40 mins in presence of [gamma33P]ATP by scintillation counting method"}, "[2]": {"molecular_target": "Serine/threonine-protein kinase WNK3 (Homo sapiens) (UniProt Q9BYP7)", "assay": "Inhibition of human WNK3 (1 to 434 residues) using myelin basic protein as substrate measured after 40 mins in presence of [gamma33P]ATP by scintillation counting method", "set-up": "scale not given: the % may be the effect or the level left"}, "[3]": {"molecular_target": "Serine/threonine-protein kinase ICK (Homo sapiens) (UniProt Q9UPZ9)", "assay": "Inhibition of recombinant human ICK (1 to 312 residues) assessed as residual activity at 10 uM using RRRFRPASPLRGPPK as substrate measured after 40 mins in presence of [gamma33P]ATP by scintillation counting method"}, "[4]": {"molecular_target": "Mitogen-activated protein kinase kinase kinase kinase 3 (Homo sapiens) (UniProt Q8IVH8)", "sequence (Q8IVH8 whole entry, the tested form may be a part)": "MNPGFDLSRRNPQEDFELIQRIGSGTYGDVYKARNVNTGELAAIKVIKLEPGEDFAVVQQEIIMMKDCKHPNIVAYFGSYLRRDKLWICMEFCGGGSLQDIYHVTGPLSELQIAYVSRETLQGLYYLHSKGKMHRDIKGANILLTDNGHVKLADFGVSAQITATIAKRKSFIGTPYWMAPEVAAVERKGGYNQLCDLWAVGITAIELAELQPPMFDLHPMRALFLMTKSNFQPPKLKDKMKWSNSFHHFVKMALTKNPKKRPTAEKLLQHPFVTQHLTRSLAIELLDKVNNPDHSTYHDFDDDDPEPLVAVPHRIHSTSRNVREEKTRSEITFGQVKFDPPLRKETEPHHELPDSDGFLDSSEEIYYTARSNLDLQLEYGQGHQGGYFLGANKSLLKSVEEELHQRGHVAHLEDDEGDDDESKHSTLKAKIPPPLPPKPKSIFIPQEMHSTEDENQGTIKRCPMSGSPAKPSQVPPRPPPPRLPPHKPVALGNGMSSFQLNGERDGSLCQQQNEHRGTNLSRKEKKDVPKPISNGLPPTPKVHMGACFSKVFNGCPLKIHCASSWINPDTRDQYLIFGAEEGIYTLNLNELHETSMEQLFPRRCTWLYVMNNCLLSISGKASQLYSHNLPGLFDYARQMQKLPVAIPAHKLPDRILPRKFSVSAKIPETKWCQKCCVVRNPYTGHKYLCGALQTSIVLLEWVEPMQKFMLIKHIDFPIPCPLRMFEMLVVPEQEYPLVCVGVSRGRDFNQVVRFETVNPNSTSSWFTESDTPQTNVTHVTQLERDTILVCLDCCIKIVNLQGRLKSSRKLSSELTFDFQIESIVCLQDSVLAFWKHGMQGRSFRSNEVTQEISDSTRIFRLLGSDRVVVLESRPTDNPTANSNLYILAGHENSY", "assay": "Inhibition of recombinant human MAP4K3 (1 to 291 residues) assessed as residual activity at 10 uM using RLGRDKYKTLRQIRQ as substrate measured after 40 mins in presence of [gamma33P]ATP by scintillation counting method"}, "SW-620 [5]": {"tested_on": "SW-620", "assay": "Induction of apoptosis in human SW620 cells assessed as early apoptotic cells at 25 nM measured after 48 hrs by Annexin V-FITC/propidium iodide staining-based flow cytometry (reference value: 0.773%)", "assay_type": "functional"}, "[6]": {"molecular_target": "5'-AMP-activated protein kinase catalytic subunit alpha-2 (Homo sapiens) (UniProt P54646)", "assay": "Inhibition of recombinant full-length human AMPKalpha2 assessed as residual activity at 10 uM using AMARAASAAALARRR as substrate measured after 40 mins in presence of [gamma33P]ATP by scintillation counting method"}, "[7]": {"molecular_target": "CDC7/Cyclin B1 (Homo sapiens) (UniProt P14635+O00311)", "assay": "Inhibition of recombinant full-length human CDC7/cyclinB1 assessed as residual activity at 10 uM using Histone H1 as substrate measured after 120 mins in presence of [gamma33P]ATP by scintillation counting method", "assay_type": "protein-complex assay"}, "[8]": {"molecular_target": "Mitogen-activated protein kinase 14 (Homo sapiens) (UniProt Q16539)", "assay": "Inhibition of recombinant full-length human SAPK2a assessed as residual activity at 10 uM using myelin basic protein as substrate measured after 40 mins in presence of [gamma33P]ATP by scintillation counting method"}, "[9]": {"tested_on": "Epidermal growth factor receptor (Homo sapiens), P00533 [L858R,T790M]", "assay": "Inhibition of recombinant human EGFR T790M/L858R mutant (696 to end residues) assessed as residual activity at 10 uM using GGMEDIYFEFMGGKKK as substrate measured after 40 mins in presence of [gamma33P]ATP by scintillation counting method"}, "[10]": {"tested_on": "Serine/threonine-protein kinase TAO3 (Homo sapiens), Q9H2K8 [UNDEFINED MUTATION]", "sequence (Q9H2K8 whole entry, looked up, stated change not applied, the tested form may be a part)": "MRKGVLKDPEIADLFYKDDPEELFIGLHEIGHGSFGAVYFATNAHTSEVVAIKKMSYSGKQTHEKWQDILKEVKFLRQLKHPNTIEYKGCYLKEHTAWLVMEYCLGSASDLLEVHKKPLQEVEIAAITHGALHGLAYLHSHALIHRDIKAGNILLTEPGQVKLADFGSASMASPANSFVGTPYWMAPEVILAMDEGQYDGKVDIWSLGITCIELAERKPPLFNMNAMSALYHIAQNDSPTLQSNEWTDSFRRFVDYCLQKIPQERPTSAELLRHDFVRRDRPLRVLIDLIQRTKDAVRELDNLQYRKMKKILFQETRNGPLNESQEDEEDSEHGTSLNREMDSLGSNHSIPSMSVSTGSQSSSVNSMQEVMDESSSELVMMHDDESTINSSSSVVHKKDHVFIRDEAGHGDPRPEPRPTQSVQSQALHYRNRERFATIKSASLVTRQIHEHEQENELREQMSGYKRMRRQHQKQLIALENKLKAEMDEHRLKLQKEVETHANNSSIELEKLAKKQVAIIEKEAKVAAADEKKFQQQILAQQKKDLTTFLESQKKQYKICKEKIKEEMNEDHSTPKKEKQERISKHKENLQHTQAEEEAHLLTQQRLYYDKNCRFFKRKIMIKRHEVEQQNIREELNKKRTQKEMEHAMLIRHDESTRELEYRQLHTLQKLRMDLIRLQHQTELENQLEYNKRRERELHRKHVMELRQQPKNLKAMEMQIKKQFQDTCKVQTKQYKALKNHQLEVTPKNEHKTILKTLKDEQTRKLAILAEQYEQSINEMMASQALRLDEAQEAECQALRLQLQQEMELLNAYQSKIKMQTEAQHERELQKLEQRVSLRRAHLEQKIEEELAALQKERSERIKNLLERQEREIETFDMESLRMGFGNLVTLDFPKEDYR", "assay": "Inhibition of human TAO3 (1 to 411 residues) using myelin basic protein as substrate measured after 40 mins in presence of [gamma33P]ATP by scintillation counting method", "set-up": "scale not given: the % may be the effect or the level left"}, "[11]": {"molecular_target": "Mitogen-activated protein kinase kinase kinase kinase 1 (Homo sapiens) (UniProt Q92918)", "sequence (Q92918 whole entry, looked up, the tested form may be a part)": "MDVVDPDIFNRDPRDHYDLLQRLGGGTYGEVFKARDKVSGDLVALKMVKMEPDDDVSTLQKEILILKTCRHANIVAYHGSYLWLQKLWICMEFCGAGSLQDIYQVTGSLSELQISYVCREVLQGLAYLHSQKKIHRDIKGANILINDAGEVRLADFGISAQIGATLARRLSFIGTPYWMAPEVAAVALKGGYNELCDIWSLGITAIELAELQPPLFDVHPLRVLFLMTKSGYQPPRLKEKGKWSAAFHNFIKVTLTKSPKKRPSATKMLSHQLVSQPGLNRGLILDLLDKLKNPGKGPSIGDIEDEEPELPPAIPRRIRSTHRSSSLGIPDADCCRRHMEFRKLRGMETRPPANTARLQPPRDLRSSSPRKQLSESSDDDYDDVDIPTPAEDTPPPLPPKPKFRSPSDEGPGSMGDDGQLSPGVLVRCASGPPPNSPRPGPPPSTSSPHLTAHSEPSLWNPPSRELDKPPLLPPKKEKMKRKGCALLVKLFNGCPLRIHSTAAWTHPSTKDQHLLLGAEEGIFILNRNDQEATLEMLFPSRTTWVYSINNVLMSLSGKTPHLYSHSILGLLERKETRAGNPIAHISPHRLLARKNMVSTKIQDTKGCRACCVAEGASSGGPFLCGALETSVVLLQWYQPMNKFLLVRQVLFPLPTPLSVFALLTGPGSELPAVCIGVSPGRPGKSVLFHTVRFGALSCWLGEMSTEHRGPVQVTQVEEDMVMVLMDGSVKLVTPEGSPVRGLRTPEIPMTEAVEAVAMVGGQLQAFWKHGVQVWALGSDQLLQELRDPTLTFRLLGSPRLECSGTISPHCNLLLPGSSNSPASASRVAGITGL", "assay": "Inhibition of recombinant human HPK1 (1 to 346 residues) assessed as residual activity at 10 uM using myelin basic protein as substrate measured after 40 mins in presence of [gamma33P]ATP by scintillation counting method"}, "[12]": {"molecular_target": "Serine/threonine-protein kinase TAO1 (Homo sapiens) (UniProt Q7L7X3)", "assay": "Inhibition of human TAO1 (1 to 327 residues) using myelin basic protein as substrate measured after 40 mins in presence of [gamma33P]ATP by scintillation counting method", "set-up": "scale not given: the % may be the effect or the level left"}, "[13]": {"molecular_target": "Tyrosine-protein kinase Srms (Homo sapiens) (UniProt Q9H3Y6)", "sequence (Q9H3Y6 whole entry)": "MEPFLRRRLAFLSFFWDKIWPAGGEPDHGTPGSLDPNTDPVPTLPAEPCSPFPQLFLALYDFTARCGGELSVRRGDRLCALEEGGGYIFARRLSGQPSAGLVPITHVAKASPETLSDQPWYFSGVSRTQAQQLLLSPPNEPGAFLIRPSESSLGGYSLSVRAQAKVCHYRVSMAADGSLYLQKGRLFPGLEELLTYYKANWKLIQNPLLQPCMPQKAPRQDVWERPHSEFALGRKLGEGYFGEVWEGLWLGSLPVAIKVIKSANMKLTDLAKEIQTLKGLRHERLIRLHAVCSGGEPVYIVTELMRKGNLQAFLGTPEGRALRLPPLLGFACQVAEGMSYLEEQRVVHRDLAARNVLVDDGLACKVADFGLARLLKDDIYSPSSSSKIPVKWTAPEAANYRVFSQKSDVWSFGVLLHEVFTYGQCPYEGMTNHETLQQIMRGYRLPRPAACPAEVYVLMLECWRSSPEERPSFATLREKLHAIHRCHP", "assay": "Inhibition of human SRMS assessed as residual activity at 10 uM by radiometric method"}, "[14]": {"molecular_target": "Protein kinase C alpha type (Homo sapiens) (UniProt P17252)", "assay": "Inhibition of recombinant full-length human PKCalpha assessed as residual activity at 10 uM using histone H1 as substrate measured after 40 mins in presence of [gamma33P]ATP by scintillation counting method"}, "SW-620 [15]": {"tested_on": "SW-620", "assay": "Induction of apoptosis in human SW620 cells assessed as late apoptotic cells at 100 nM measured after 48 hrs by Annexin V-FITC/propidium iodide staining-based flow cytometry (reference value: 1.8%)", "assay_type": "functional"}, "[16]": {"molecular_target": "cAMP-dependent protein kinase catalytic subunit PRKX (Homo sapiens) (UniProt P51817)", "assay": "Inhibition of recombinant full-length human PrKX assessed as residual activity at 10 uM using RRRLSFAEPG as substrate measured after 40 mins in presence of [gamma33P]ATP by scintillation counting method"}, "[17]": {"molecular_target": "Ephrin type-A receptor 4 (Homo sapiens) (UniProt P54764)", "sequence (P54764 whole entry, the tested form may be a part)": "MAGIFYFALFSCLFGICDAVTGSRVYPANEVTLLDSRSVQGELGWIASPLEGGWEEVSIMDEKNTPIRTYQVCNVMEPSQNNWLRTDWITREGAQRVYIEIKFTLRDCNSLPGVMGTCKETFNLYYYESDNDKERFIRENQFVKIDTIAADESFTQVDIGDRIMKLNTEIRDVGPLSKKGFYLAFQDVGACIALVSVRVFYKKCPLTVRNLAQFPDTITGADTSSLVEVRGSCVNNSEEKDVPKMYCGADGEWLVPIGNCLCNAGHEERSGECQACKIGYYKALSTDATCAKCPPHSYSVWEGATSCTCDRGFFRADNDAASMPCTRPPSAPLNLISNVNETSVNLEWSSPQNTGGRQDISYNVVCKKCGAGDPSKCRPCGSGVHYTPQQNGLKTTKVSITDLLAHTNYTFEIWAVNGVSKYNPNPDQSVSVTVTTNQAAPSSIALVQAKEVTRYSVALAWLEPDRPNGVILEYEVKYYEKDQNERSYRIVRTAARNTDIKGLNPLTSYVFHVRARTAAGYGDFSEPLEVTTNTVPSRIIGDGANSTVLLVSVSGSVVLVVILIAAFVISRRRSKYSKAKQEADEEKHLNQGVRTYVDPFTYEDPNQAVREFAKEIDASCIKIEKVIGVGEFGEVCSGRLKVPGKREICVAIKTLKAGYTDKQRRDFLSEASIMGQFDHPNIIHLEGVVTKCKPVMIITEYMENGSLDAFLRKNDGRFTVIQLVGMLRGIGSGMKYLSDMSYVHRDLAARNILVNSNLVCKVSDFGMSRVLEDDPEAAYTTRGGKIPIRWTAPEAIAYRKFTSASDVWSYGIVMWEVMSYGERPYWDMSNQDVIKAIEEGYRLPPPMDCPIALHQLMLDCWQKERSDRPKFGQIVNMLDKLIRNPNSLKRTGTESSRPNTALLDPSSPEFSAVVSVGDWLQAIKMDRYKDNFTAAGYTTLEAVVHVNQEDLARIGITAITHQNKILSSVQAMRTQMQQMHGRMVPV", "assay": "Inhibition of recombinant human EphA4 (601 to 892 residues) assessed as residual activity at 10 uM using poly(Glu, Tyr) 4:1 as substrate measured after 40 mins in presence of [gamma33P]ATP by scintillation counting method"}, "[18]": {"molecular_target": "Calcium/calmodulin-dependent protein kinase type II subunit alpha (Homo sapiens) (UniProt Q9UQM7)", "assay": "Inhibition of recombinant full-length human CaMK2alpha assessed as residual activity at 10 uM using calmodulin as substrate measured after 40 mins in presence of [gamma33P]ATP by scintillation counting method"}, "[19]": {"molecular_target": "Tyrosine-protein kinase Fes/Fps (Homo sapiens) (UniProt P07332)", "assay": "Inhibition of recombinant human FES (2 to end residues) assessed as residual activity at 10 uM using poly(Glu, Tyr) 4:1 as substrate measured after 40 mins in presence of [gamma33P]ATP by scintillation counting method"}, "[20]": {"molecular_target": "Tyrosine-protein kinase Fer (Homo sapiens) (UniProt P16591)", "assay": "Inhibition of recombinant human FER (541 to end residues) assessed as residual activity at 10 uM using KKKSPGEYVNIEFG as substrate measured after 40 mins in presence of [gamma33P]ATP by scintillation counting method"}, "[21]": {"molecular_target": "CDK7/Cyclin H/MNAT1 (Homo sapiens) (UniProt P51946+P50613+P51948)", "assay": "Inhibition of recombinant full length human CDK7/cyclin H/MAT1 assessed as residual activity at 10 uM using peptide substrate measured after 40 mins in presence of [gamma33P]ATP by scintillation counting method", "assay_type": "protein-complex assay"}, "[22]": {"molecular_target": "Serine/threonine-protein kinase D3 (Homo sapiens) (UniProt O94806)", "sequence (O94806 whole entry)": "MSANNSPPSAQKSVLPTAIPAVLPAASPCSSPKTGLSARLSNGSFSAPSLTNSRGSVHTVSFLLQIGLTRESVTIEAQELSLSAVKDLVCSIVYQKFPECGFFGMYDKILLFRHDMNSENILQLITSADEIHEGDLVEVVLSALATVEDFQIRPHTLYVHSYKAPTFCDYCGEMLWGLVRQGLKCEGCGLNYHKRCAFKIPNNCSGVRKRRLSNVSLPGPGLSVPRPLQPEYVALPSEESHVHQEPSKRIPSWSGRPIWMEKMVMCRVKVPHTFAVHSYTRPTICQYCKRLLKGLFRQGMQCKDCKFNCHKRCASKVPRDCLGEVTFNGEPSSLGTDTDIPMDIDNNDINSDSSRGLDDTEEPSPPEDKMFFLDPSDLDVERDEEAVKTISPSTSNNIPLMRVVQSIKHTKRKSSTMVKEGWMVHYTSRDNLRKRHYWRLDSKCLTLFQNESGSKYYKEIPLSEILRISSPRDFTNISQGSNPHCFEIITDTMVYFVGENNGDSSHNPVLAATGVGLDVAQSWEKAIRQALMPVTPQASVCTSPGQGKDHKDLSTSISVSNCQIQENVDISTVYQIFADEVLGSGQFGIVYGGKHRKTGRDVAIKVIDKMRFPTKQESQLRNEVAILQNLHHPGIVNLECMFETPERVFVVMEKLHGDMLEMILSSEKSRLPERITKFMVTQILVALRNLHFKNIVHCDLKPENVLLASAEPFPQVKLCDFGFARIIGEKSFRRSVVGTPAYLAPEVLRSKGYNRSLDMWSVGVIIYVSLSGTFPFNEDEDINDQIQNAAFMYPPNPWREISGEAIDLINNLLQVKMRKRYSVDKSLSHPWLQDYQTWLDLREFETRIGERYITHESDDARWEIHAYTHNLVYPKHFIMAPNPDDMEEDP", "assay": "Inhibition of recombinant full-length human PKD3 assessed as residual activity at 10 uM using KKLRRTLSVA as substrate measured after 40 mins in presence of [gamma33P]ATP by scintillation counting method"}, "[23]": {"molecular_target": "Mitogen-activated protein kinase kinase kinase 5 (Homo sapiens) (UniProt Q99683)", "assay": "Inhibition of recombinant human ASK1 (649 to 946 residues) assessed as residual activity at 10 uM using myelin basic protein as substrate measured after 40 mins in presence of [gamma33P]ATP by scintillation counting method"}}, "data": [{"smiles": "Cc1cc(C)c(CNc2nc(Cl)nc3c2ncn3C2CCCC2)c(=O)[nH]1", "values": [{"measurement": "Activity", "setting": "[1]", "result": 107, "unit": "%"}, {"measurement": "Activity", "setting": "[2]", "result": 136, "unit": "%"}, {"measurement": "Activity", "setting": "[3]", "result": 114, "unit": "%"}, {"measurement": "Activity", "setting": "[4]", "result": 104, "unit": "%"}, {"measurement": "Activity", "setting": "SW-620 [5]", "result": 1.22, "unit": "%"}, {"measurement": "Activity", "setting": "[6]", "result": 117, "unit": "%"}, {"measurement": "Activity", "setting": "[7]", "result": 102, "unit": "%"}, {"measurement": "Activity", "setting": "[8]", "result": 109, "unit": "%"}, {"measurement": "Activity", "setting": "[9]", "result": 96.5, "unit": "%"}, {"measurement": "Activity", "setting": "[10]", "result": 97, "unit": "%"}, {"measurement": "Activity", "setting": "[11]", "result": 106, "unit": "%"}, {"measurement": "Activity", "setting": "[12]", "result": 93.5, "unit": "%"}, {"measurement": "Activity", "setting": "[13]", "result": 108, "unit": "%"}, {"measurement": "Activity", "setting": "[14]", "result": 88.5, "unit": "%"}, {"measurement": "Activity", "setting": "SW-620 [15]", "result": 23.1, "unit": "%"}, {"measurement": "Activity", "setting": "[16]", "result": 113, "unit": "%"}, {"measurement": "Activity", "setting": "[17]", "result": 100, "unit": "%"}, {"measurement": "Activity", "setting": "[18]", "result": 92, "unit": "%"}, {"measurement": "Activity", "setting": "[19]", "result": 100, "unit": "%"}, {"measurement": "Activity", "setting": "[20]", "result": 108, "unit": "%"}, {"measurement": "Activity", "setting": "[21]", "result": 101, "unit": "%"}, {"measurement": "Activity", "setting": "[22]", "result": 106, "unit": "%"}, {"measurement": "Activity", "setting": "[23]", "result": 102, "unit": "%"}]}]}
